Data reported in PubChem BioAssay (NCI).
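Compound exposure: 48 hours, 5 concentrations, 96-well plates. GI50 = concentration required for 50% inhibition of growth. TGI denotes the concentration required for complete inhibition of growth.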

Legend:
Assay in all cases: inhibition of tumour cell growth, NCI panel, 48 h
786-0 renal = tested on: 786-0 renal
A498 renal = tested on: A498 renal
A549 NSCLC = tested on: A549 NSCLC
ACHN renal = tested on: ACHN renal
BT-549 breast = tested on: BT-549 breast
CAKI-1 renal = tested on: CAKI-1 renal
CCRF-CEM leukemia = tested on: CCRF-CEM leukemia
COLO 205 colon = tested on: COLO 205 colon
DU-145 prostate = tested on: DU-145 prostate
EKVX NSCLC = tested on: EKVX NSCLC
HCC-2998 colon = tested on: HCC-2998 colon
HCT-116 colon = tested on: HCT-116 colon
HCT-15 colon = tested on: HCT-15 colon
HL-60(TB) leukemia = tested on: HL-60(TB) leukemia
HOP-62 NSCLC = tested on: HOP-62 NSCLC
HOP-92 NSCLC = tested on: HOP-92 NSCLC
HS 578T breast = tested on: HS 578T breast
HT29 colon = tested on: HT29 colon
IGROV1 ovarian = tested on: IGROV1 ovarian
K-562 leukemia = tested on: K-562 leukemia
KM12 colon = tested on: KM12 colon
LOX IMVI melanoma = tested on: LOX IMVI melanoma
M14 melanoma = tested on: M14 melanoma
MALME-3M melanoma = tested on: MALME-3M melanoma
MCF7 breast = tested on: MCF7 breast
MDA-MB-231 breast = tested on: MDA-MB-231 breast
MDA-MB-435 = tested on: MDA-MB-435
MDA-MB-468 breast = tested on: MDA-MB-468 breast
MOLT-4 leukemia = tested on: MOLT-4 leukemia
NCI-H226 lung = tested on: NCI-H226 lung
NCI-H23 lung = tested on: NCI-H23 lung
NCI-H460 lung = tested on: NCI-H460 lung
NCI-H522 lung = tested on: NCI-H522 lung
NCI/ADR-RES ovarian = tested on: NCI/ADR-RES ovarian
OVCAR-3 ovarian = tested on: OVCAR-3 ovarian
OVCAR-4 ovarian = tested on: OVCAR-4 ovarian
OVCAR-5 ovarian = tested on: OVCAR-5 ovarian
OVCAR-8 ovarian = tested on: OVCAR-8 ovarian
PC-3 prostate = tested on: PC-3 prostate
RPMI-8226 leukemia = tested on: RPMI-8226 leukemia
RXF 393 renal = tested on: RXF 393 renal
SF-268 CNS = tested on: SF-268 CNS
SF-295 CNS = tested on: SF-295 CNS
SF-539 CNS = tested on: SF-539 CNS
SK-MEL-2 melanoma = tested on: SK-MEL-2 melanoma
SK-MEL-28 melanoma = tested on: SK-MEL-28 melanoma
SK-MEL-5 melanoma = tested on: SK-MEL-5 melanoma
SK-OV-3 ovarian = tested on: SK-OV-3 ovarian
SN12C renal = tested on: SN12C renal
SNB-19 CNS = tested on: SNB-19 CNS
SNB-75 CNS = tested on: SNB-75 CNS
SR leukemia = tested on: SR leukemia
SW-620 colon = tested on: SW-620 colon
T-47D breast = tested on: T-47D breast
TK-10 renal = tested on: TK-10 renal
U251 CNS = tested on: U251 CNS
UACC-257 melanoma = tested on: UACC-257 melanoma
UACC-62 melanoma = tested on: UACC-62 melanoma
UO-31 renal = tested on: UO-31 renal

For `NS(=O)(=O)c1ccc(NC(=O)CSc2ccc(-c3ccc(Cl)cc3)nn2)c(Br)c1`, the GI50 (786-0 renal) was 11.3 µM, the TGI (786-0 renal) was 25.6 µM and the GI50 (A498 renal) was 14 µM. For the same compound, the TGI (A498 renal) was 28 µM, the GI50 (A549 NSCLC) was 11.7 µM and the TGI (A549 NSCLC) was 31.8 µM. It also gave a GI50 (ACHN renal) of 6.92 µM, a TGI (ACHN renal) of 19.6 µM and a GI50 (BT-549 breast) of 14.1 µM. The TGI (BT-549 breast) was 44.3 µM, the GI50 (CAKI-1 renal) was 11 µM and the TGI (CAKI-1 renal) was 24.4 µM. The GI50 (CCRF-CEM leukemia) was > 100 µM, the TGI (CCRF-CEM leukemia) was > 100 µM and the GI50 (COLO 205 colon) was 20.7 µM. It also gave a TGI (COLO 205 colon) of 65.5 µM, a GI50 (DU-145 prostate) of 12.1 µM and a TGI (DU-145 prostate) of 27.2 µM. The GI50 (EKVX NSCLC) was 11 µM, the TGI (EKVX NSCLC) was 25.8 µM and the GI50 (HCC-2998 colon) was 11 µM. For the same compound, the TGI (HCC-2998 colon) was 40.4 µM, the GI50 (HCT-116 colon) was 10.3 µM and the TGI (HCT-116 colon) was 29.6 µM. It also gave a GI50 (HCT-15 colon) of 11.8 µM, a TGI (HCT-15 colon) of 25.8 µM and a GI50 (HL-60(TB) leukemia) of 50.9 µM. The TGI (HL-60(TB) leukemia) was > 100 µM, the GI50 (HOP-62 NSCLC) was 2.93 µM and the TGI (HOP-62 NSCLC) was 10.8 µM. It also gave a GI50 (HOP-92 NSCLC) of 3.96 µM, a TGI (HOP-92 NSCLC) of 19.2 µM and a GI50 (HS 578T breast) of 2.8 µM. For the same compound, the TGI (HS 578T breast) was 12.4 µM, the GI50 (HT29 colon) was 15.9 µM and the TGI (HT29 colon) was 46.8 µM. The GI50 (IGROV1 ovarian) was 23.3 µM, the TGI (IGROV1 ovarian) was 76.4 µM and the GI50 (K-562 leukemia) was 20.4 µM. The TGI (K-562 leukemia) was > 100 µM, the GI50 (KM12 colon) was 36.3 µM and the TGI (KM12 colon) was > 100 µM. It also gave a GI50 (LOX IMVI melanoma) of 10.4 µM, a TGI (LOX IMVI melanoma) of 24.2 µM and a GI50 (M14 melanoma) of 32.4 µM. The TGI (M14 melanoma) was > 100 µM, the GI50 (MALME-3M melanoma) was 9.36 µM and the TGI (MALME-3M melanoma) was 22.4 µM. The GI50 (MCF7 breast) was 10.1 µM, the TGI (MCF7 breast) was 25.3 µM and the GI50 (MDA-MB-231 breast) was 3.7 µM. For the same compound, the TGI (MDA-MB-231 breast) was 14.6 µM, the GI50 (MDA-MB-435) was 32.6 µM and the TGI (MDA-MB-435) was > 100 µM. The GI50 (MDA-MB-468 breast) was 8.32 µM, the TGI (MDA-MB-468 breast) was 25 µM and the GI50 (MOLT-4 leukemia) was 48.3 µM. For the same compound, the TGI (MOLT-4 leukemia) was > 100 µM, the GI50 (NCI-H226 lung) was 2.62 µM and the TGI (NCI-H226 lung) was 9.4 µM. The GI50 (NCI-H23 lung) was 11.1 µM, the TGI (NCI-H23 lung) was 23.2 µM and the GI50 (NCI-H460 lung) was 7.22 µM. The TGI (NCI-H460 lung) was 22.3 µM, the GI50 (NCI-H522 lung) was 10.5 µM and the TGI (NCI-H522 lung) was 26.3 µM. For the same compound, the GI50 (NCI/ADR-RES ovarian) was 7.75 µM, the TGI (NCI/ADR-RES ovarian) was > 100 µM and the GI50 (OVCAR-3 ovarian) was 12.9 µM. It also gave a TGI (OVCAR-3 ovarian) of 27.6 µM, a GI50 (OVCAR-4 ovarian) of 10.4 µM and a TGI (OVCAR-4 ovarian) of 42.6 µM. It also gave a GI50 (OVCAR-5 ovarian) of 17.2 µM, a TGI (OVCAR-5 ovarian) of 51 µM and a GI50 (OVCAR-8 ovarian) of 10.3 µM. For the same compound, the TGI (OVCAR-8 ovarian) was 24.7 µM, the GI50 (PC-3 prostate) was 8.97 µM and the TGI (PC-3 prostate) was 49.2 µM. The GI50 (RPMI-8226 leukemia) was 96.9 µM, the TGI (RPMI-8226 leukemia) was > 100 µM and the GI50 (RXF 393 renal) was 2.99 µM. The TGI (RXF 393 renal) was 13.8 µM, the GI50 (SF-268 CNS) was 7.22 µM and the TGI (SF-268 CNS) was 34.4 µM. The GI50 (SF-295 CNS) was 5.13 µM, the TGI (SF-295 CNS) was 16.1 µM and the GI50 (SF-539 CNS) was 4.15 µM. The TGI (SF-539 CNS) was 15.8 µM, the GI50 (SK-MEL-2 melanoma) was 15.8 µM and the TGI (SK-MEL-2 melanoma) was 32 µM. The GI50 (SK-MEL-28 melanoma) was 12.3 µM, the TGI (SK-MEL-28 melanoma) was 28.8 µM and the GI50 (SK-MEL-5 melanoma) was 10.2 µM. It also gave a TGI (SK-MEL-5 melanoma) of 21.9 µM, a GI50 (SK-OV-3 ovarian) of 4.39 µM and a TGI (SK-OV-3 ovarian) of 15.1 µM. The GI50 (SN12C renal) was 26.1 µM, the TGI (SN12C renal) was 83.3 µM and the GI50 (SNB-19 CNS) was 3.75 µM. For the same compound, the TGI (SNB-19 CNS) was 14.9 µM, the GI50 (SNB-75 CNS) was 1.79 µM and the TGI (SNB-75 CNS) was 15 µM. For the same compound, the GI50 (SR leukemia) was 50.5 µM, the TGI (SR leukemia) was > 100 µM and the GI50 (SW-620 colon) was 32.8 µM. The TGI (SW-620 colon) was > 100 µM, the GI50 (T-47D breast) was 4.59 µM and the TGI (T-47D breast) was 21.8 µM. It also gave a GI50 (TK-10 renal) of 18 µM, a TGI (TK-10 renal) of 38.9 µM and a GI50 (U251 CNS) of 5.15 µM. For the same compound, the TGI (U251 CNS) was 21.7 µM, the GI50 (UACC-257 melanoma) was 31.4 µM and the TGI (UACC-257 melanoma) was > 100 µM. The GI50 (UACC-62 melanoma) was 13.7 µM, the TGI (UACC-62 melanoma) was 34.1 µM and the GI50 (UO-31 renal) was 29.5 µM. For the same compound, the TGI (UO-31 renal) was > 100 µM.
